The numbers were not newly measured in US6723506B2, “Method of identifying PAX8-PPAR gamma-nucleic acid molecules” (Brigham and Women's Hospital, priority 2000, dated 2004), which cites them from elsewhere.

The test system of this series is PML-RAR (retinoic acid receptor α) translocation. To be noted: patients harboring the PML-RAR translocation.

For the compound `CC1=C(/C=C/C(C)=C/C=C/C(C)=C/C(=O)O)C(C)(C)CCC1` [all-trans retinoic acid], the “remission in APML patients” value was “induces remission in nearly every patient”.
